Assay results: ChEMBL document CHEMBL4334495, “Design and Biological Evaluation of m-Xylene Thioether-Stapled Short Helical Peptides Targeting the HIV-1 gp41 Hexameric Coiled-Coil Fusion Complex” (J Med Chem, 2019)
Activity calls are given as the source filed them. The calls are words filed in the database; no cut-off is given here. Starred links: 1 amine or outer side, 2 acyl side, 3 side chain; linkers in the order of their positions; H or OH if unused. Positions of bridges follow the written chain, without caps; N, C: chain ends. Non-standard residues stand in square brackets, D forms with d. Residues, ends and D or L forms follow the SMILES beside them. ξ: configuration not given here. mXylylene = c1cc(C[*:1])cc(C[*:2])c1; ξhCys = NC(CCS)C(=O)O

Columns and labels:
[1] = molecular target: Envelope glycoprotein gp160 (Human immunodeficiency virus 1) (UniProt Q6QLK5); test: Ratio of EC50 for inhibition of HIV1 gp41-induced cell-cell fusion between viral envelope expressing human HL2/3 cells to CD4/CCR5 receptor expressing TZM-bl cells in absence of HP23 to EC50 for inhibition of HIV1 gp41-induced cell-cell fusion between viral envelope expressing human HL2/3 cells to CD4/CCR5 receptor expressing TZM-bl cells at 1:1 ratio of hCS6ERE to compound
Envelope glycoprotein gp160 (Human immunodeficiency virus 1), sequence (Q6QLK5 1-814): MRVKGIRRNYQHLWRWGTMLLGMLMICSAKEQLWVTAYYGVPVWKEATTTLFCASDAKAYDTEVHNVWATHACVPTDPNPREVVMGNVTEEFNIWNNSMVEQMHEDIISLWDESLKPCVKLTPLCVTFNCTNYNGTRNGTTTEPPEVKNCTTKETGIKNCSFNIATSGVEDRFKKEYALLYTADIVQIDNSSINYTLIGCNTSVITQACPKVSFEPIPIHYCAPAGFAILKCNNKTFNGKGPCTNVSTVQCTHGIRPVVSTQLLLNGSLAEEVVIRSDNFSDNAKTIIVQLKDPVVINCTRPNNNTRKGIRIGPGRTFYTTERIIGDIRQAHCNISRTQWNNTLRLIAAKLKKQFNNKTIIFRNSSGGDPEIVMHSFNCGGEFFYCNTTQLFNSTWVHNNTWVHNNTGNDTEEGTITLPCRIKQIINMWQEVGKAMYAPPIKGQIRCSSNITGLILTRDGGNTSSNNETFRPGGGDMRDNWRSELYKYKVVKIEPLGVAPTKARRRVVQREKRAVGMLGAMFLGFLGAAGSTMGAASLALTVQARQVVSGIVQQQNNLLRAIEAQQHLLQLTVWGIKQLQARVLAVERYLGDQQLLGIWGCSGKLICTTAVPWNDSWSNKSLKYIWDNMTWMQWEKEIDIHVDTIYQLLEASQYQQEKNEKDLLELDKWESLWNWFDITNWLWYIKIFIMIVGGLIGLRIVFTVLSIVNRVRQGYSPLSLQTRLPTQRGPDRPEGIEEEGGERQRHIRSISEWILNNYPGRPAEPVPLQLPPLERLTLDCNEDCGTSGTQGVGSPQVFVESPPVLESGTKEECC

[2] = tested on: Human immunodeficiency virus 1; test: Antiviral activity against X4 tropic HIV-1 subtype-B 3B infected in human MT2 cells or CEMx174 5.25 M7 cells assessed as reduction in p24 Gag protein production at 12:1 ratio of hCS6ERE to compound measured at 4 days post-infection by ELISA; format: functional, cell-based, HIV-1 group M; conditions: Human immunodeficiency virus 1, 3B, 96 h
[3] = tested on: Human immunodeficiency virus 1; test: Antiviral activity against X4 tropic HIV-1 subtype-B 3B infected in human MT2 cells or CEMx174 5.25 M7 cells assessed as reduction in p24 Gag protein production at 24:1 ratio of hCS6ERE to compound measured at 4 days post-infection by ELISA; format: functional, cell-based, HIV-1 group M; conditions: Human immunodeficiency virus 1, 3B, 96 h
[4] = tested on: Human immunodeficiency virus 1; test: (§1) Ratio of EC50 for antiviral activity against X4 tropic HIV-1 subtype-B 3B infected in human MT2 cells or CEMx174 5.25 M7 cells in absence of hCS6ERE to EC50 for antiviral activity against X4 tropic HIV-1 subtype-B 3B infected in human MT2 cells or CEMx174 5.25 M7 cells at 6:1 ratio of hCS6ERE to compound; format: functional, HIV-1 group M
[5] = tested on: Human immunodeficiency virus 1; test: as §1, with “24:1” for “6:1”; format: functional, HIV-1 group M
[6] = tested on: Human immunodeficiency virus 1; test: Antiviral activity against R5 tropic HIV-1 subtype-B Bal infected in human MT2 cells or CEMx174 5.25 M7 cells assessed as reduction in p24 Gag protein production at 6:1 ratio of hCS6ERE to compound measured at 4 days post-infection by ELISA; format: functional, cell-based, HIV-1 group M; conditions: Human immunodeficiency virus 1, Bal, 96 h
[7] = tested on: Human immunodeficiency virus 1; test: Antiviral activity against HIV1 NL4-3 infected in human MT2 cells or CEMx174 5.25 M7 cells assessed as reduction in p24 Gag protein production at 5:1 hCS6ERE to compound ratio measured at 4 days post-infection by ELISA; format: functional, organism-based; conditions: Human immunodeficiency virus 1, NL4-3, 96 h
[8] = tested on: Human immunodeficiency virus 1; test: as §1, with “T20 resistant HIV1 NL4-3 harboring with V38E/N42S mutant” for “X4 tropic HIV-1 subtype-B 3B”, “3500:1” for “6:1 ratio of”, “compound ratio” for “compound”; format: functional
[9] = tested on: Human immunodeficiency virus 1; test: Ratio of EC50 for antiviral activity against T20 resistant HIV1 NL4-3 harboring with V38E/N42T mutant infected in human MT2 cells or CEMx174 5.25 M7 cells in absence of hCS6ERE to EC50 for Antiviral activity against T20 resistant HIV1 NL4-3 harboring with V38E/N42T mutant infected in human MT2 cells or CEMx174 5.25 M7 cells at 600:1 hCS6ERE to compound ratio; format: functional
[10] = tested on: Human immunodeficiency virus 1; test: Antiviral activity against T2635 resistant HIV1 LAI harboring Q66R mutant infected in human MT2 cells or CEMx174 5.25 M7 cells assessed as reduction in p24 Gag protein production at 12.5:1 ratio of hCS6ERE to compound measured at 4 days post infection by ELISA; format: functional, organism-based, M:B_Lai
[11] = molecular target: Envelope glycoprotein gp160 (Human immunodeficiency virus 1) (UniProt Q6QLK5); test: Binding affinity to HIV1 GP41 using GP41 NHR derived N36 peptide at 500 uM incubated for 30 mins by size exclusion HPLC analysis
[12] = tested on: Human immunodeficiency virus 1; test: (§2) Synergistic antiviral activity against X4 tropic HIV-1 subtype-B 3B infected in human MT2 cells or CEMx174 5.25 M7 cells assessed as reduction in p24 Gag protein production by measuring combination index at 12:1 compound to HP23 ratio measured at 4 days post-infection by ELISA; format: functional, HIV-1 group M
[13] = tested on: Human immunodeficiency virus 1; test: Antiviral activity against X4 tropic HIV-1 subtype-B 3B infected in human MT2 cells or CEMx174 5.25 M7 cells assessed as reduction in p24 Gag protein production at 24:1 compound to HP23 ratio measured at 4 days post-infection by ELISA; format: functional, cell-based, HIV-1 group M; conditions: Human immunodeficiency virus 1, 3B, 96 h
[14] = tested on: Human immunodeficiency virus 1; test: Synergistic antiviral activity against R5 tropic HIV-1 subtype-B Bal infected in human MT2 cells or CEMx174 5.25 M7 cells assessed as reduction in p24 Gag protein production by measuring combination index at 12:1 ratio of hCS6ERE to compound measured at 4 days post-infection by ELISA; format: functional, HIV-1 group M
[15] = tested on: Human immunodeficiency virus 1; test: Antiviral activity against R5 tropic HIV-1 subtype-B Bal infected in human MT2 cells or CEMx174 5.25 M7 cells assessed as reduction in p24 Gag protein production at 3:1 ratio of compound to HP23 measured at 4 days post-infection by ELISA; format: functional, cell-based, HIV-1 group M; conditions: Human immunodeficiency virus 1, Bal, 96 h
[16] = tested on: Human immunodeficiency virus 1; test: Ratio of EC50 for antiviral activity against R5 tropic HIV-1 subtype-B Bal infected in human MT2 cells or CEMx174 5.25 M7 cells in absence of HP23 to EC50 for antiviral activity against R5 tropic HIV-1 subtype-B Bal infected in human MT2 cells or CEMx174 5.25 M7 cells at 12:1 compound to HP23 ratio; format: functional, HIV-1 group M
[17] = tested on: Human immunodeficiency virus 1; test: Antiviral activity against HIV1 NL4-3 infected in human MT2 cells or CEMx174 5.25 M7 cells assessed as reduction in p24 Gag protein production at 5:1 compound to HP23 ratio measured at 4 days post-infection by ELISA; format: functional, organism-based; conditions: Human immunodeficiency virus 1, NL4-3, 96 h
[18] = tested on: Human immunodeficiency virus 1; test: Antiviral activity against HIV1 NL4-3 infected in human MT2 cells or CEMx174 5.25 M7 cells assessed as reduction in p24 Gag protein production at 20:1 compound to HP23 ratio measured at 4 days post-infection by ELISA; format: functional, organism-based; conditions: Human immunodeficiency virus 1, NL4-3, 96 h
[19] = tested on: Human immunodeficiency virus 1; test: Ratio of EC50 for antiviral activity against HIV1 NL4-3 infected in human MT2 cells or CEMx174 5.25 M7 cells in absence of HP23 to EC50 for antiviral activity against HIV1 NL4-3 infected in human MT2 cells or CEMx174 5.25 M7 cells at 5:1 compound to HP23 ratio; format: functional
[20] = tested on: Human immunodeficiency virus 1; test: Ratio of EC50 for antiviral activity against HIV1 NL4-3 infected in human MT2 cells or CEMx174 5.25 M7 cells in absence of HP23 to EC50 for antiviral activity against HIV1 NL4-3 infected in human MT2 cells or CEMx174 5.25 M7 cells at 10:1 compound to HP23 ratio; format: functional
[21] = tested on: Human immunodeficiency virus 1; test: as §2, with “T20 resistant HIV1 NL4-3 harboring with V38E/N42T mutant” for “X4 tropic HIV-1 subtype-B 3B”, “300:1” for “12:1”; format: functional
[22] = tested on: Human immunodeficiency virus 1; test: Antiviral activity against T20 resistant HIV1 NL4-3 harboring with V38E/N42T mutant infected in human MT2 cells or CEMx174 5.25 M7 cells assessed as reduction in p24 Gag protein production at 600:1 compound to HP23 ratio measured at 4 days post-infection by ELISA; format: functional, organism-based
[23] = Metabolic stability in rat kidney homogenates assessed as parent compound remaining at 3 to 100 uM after 4 hrs by RP-HPLC analysis; format: ADME, tissue-based; conditions: read-out: Stability

H-EMTWEEWEKKIEEYTKKIEEILK-OH
Ratio EC50 [1]: 1 | EC50 [2]: 0.9 nM | EC50 [3]: 0.7 nM | Ratio EC50 [4]: 1.9 | Ratio EC50 [5]: 3.6 | EC50 [6]: 1 nM | EC50 [7]: 0.9 nM | Ratio EC50 [8]: 2.3 | Ratio EC50 [9]: 5.1 | EC50 [10]: 1.8 nM

CC[C@H](C)[C@H](NC(C)=O)C(=O)N[C@@H](CCC(=O)O)C(=O)N[C@@H](CCC(=O)O)C(=O)N[C@@H](CC(C)C)C(=O)N[C@H](C(=O)NC1CCSCc2cccc(c2)CSCCC(C(=O)N[C@@H](CCC(N)=O)C(=O)N[C@@H](CCC(N)=O)C(=O)N[C@@H](CCCNC(=N)N)C(=O)N[C@@H](CCCCN)C(=O)N[C@@H](CC(N)=O)C(=O)N[C@@H](CCC(=O)O)C(=O)N[C@@H](CCC(=O)O)C(=O)N[C@@H](C)C(=O)N[C@@H](CC(C)C)C(=O)N[C@@H](CCCNC(=N)N)C(=O)N[C@@H](CCC(=O)O)C(=O)N[C@@H](CC(C)C)C(N)=O)NC(=O)[C@H](CCC(N)=O)NC(=O)[C@H](C)NC(=O)[C@H](C)NC1=O)[C@@H](C)CC (stereo partly drawn) (Ac-IEELI[ξhCys]AAQ[ξhCys]QQRKNEEALREL-NH2; linker 6-10 via mXylylene)
Activity [11]: Active | CI [12]: 0.7 | EC50 [13]: 17.3 nM | CI [14]: 0.6 | EC50 [15]: 4.1 nM | Ratio EC50 [16]: 2.6 | EC50 [17]: 4.4 nM | EC50 [18]: 14 nM | Ratio EC50 [19]: 5 | Ratio EC50 [20]: 2.5 | CI [21]: 0.8 | EC50 [22]: 468 nM | remaining at 4 h [23]: 15.8%
